“Also recorded” adds a separate entry of the source.
How the values were obtained:
MPS1 mutant cells = type: cell-based; details: CRISPR-mediated HDR knock-in
[1] = tested on: Rosa26 and PAK4-KO melanoma cells; test: 7-point dose-response of Rosa26 and PAK4-KO cells with PF-3758309; type: cell-based; details: Homo sapiens, A-375
CDK11B = CDK11B (Homo sapiens, UniProt P21127); test: Binding of OTS964 to different CDKs
[2] = tested on: CDK11B G579S / G579A cancer cells; test: Viability of CDK11B xDFG mutant cancer cells in OTS964; type: cell-based, human
[3] = tested on: A375 cells expressing H2B-mCherry; test: Mitotic progression after release from double-thymidine block into OTS964; type: cell-based, human
multiple cancer types = test: OTS964 potency in cancer cell lines
[4] = tested on: MAPK14/p38α knockout clones; test: Sensitivity of MAPK14/p38α knockout clones to chemotherapy agents; type: cell-based, human; details: multiple cell lines
CASP3-KO lines = test: Dose-response of Rosa26 and CASP3-KO cells with putative caspase-3 activators; type: cell-based, human; details: four different cell lines incl. A375 and HCT116
MCF7 cells = details: caspase 3-deficient breast cancer cell line; cited from earlier work
FKBP12 KO clones = test: Rapamycin sensitivity of FKBP12 knockout clones; type: cell-based
TOV-21G HDAC6-KO cells = test: Drug sensitivity of HDAC6-KO ovarian cancer cells; type: cell-based, human; details: ARID1A-mutant ovarian cancer cell line
HDAC6 knockout clones = test: Sensitivity of HDAC6 knockout clones to chemotherapy agents; type: cell-based, human; details: HDAC6 knockout versus control clones
[5] = tested on: OTS964-resistant HCT116 clones; test: Paclitaxel sensitivity of OTS964-resistant clones; details: HCT116 clones resistant to OTS964
p53 knockout cells = test: Nutlin-3a sensitivity after p53 knockout; type: cell-based
[6] = tested on: MELK-knockout (KO) cancer cells; details: cited from earlier work
HDAC6-KO HAP1 cells = details: cited from earlier work

Sequence of CDK11B (P21127 whole entry): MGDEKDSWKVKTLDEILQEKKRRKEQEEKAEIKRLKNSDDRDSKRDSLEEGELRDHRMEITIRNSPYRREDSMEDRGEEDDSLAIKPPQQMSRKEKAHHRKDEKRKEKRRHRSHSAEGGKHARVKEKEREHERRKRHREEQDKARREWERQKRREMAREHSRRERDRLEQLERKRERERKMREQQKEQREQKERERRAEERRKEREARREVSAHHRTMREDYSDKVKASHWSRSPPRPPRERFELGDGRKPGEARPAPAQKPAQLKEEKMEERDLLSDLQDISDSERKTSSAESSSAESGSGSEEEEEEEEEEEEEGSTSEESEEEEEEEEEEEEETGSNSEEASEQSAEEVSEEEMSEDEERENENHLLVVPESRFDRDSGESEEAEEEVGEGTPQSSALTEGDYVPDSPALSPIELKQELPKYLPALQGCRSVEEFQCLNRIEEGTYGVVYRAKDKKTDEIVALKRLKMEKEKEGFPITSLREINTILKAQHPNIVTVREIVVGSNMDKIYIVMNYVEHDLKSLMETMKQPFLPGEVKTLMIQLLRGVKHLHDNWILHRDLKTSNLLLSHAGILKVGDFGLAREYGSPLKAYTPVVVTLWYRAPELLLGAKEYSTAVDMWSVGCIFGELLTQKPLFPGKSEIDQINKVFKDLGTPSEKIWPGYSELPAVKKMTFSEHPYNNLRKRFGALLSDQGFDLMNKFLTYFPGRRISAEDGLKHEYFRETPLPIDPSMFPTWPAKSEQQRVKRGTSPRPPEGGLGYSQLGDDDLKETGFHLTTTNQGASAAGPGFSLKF

Q: For `COc1cc(OC2CCN(C)CC2)ccc1Nc1ncc2c(n1)n(C1CCCC1)c(=O)n2C` [AZ3146], which “effect of MPS1 kinase domain missense mutation on drug sensitivity” value (MPS1 mutant cells) is on record?
A: The value was “capable of granting resistance”.

Q: With `Cc1nc(Nc2[nH]nc3c2CN(C(=O)N[C@H](CN(C)C)c2ccccc2)C3(C)C)c2sccc2n1` [PF-3758309] as the molecule, how does the GI50 [1] read?
A: The GI50 was ~9 nM.

Q: With `Cc1cc(O)c(-c2ccc(C(C)CN(C)C)cc2)c2c1[nH]c(=O)c1sccc12` (stereo not drawn) [OTS964] as the molecule, how does the Kd (CDK11B) read?
A: Its Kd is 40 nM.

Q: And the “effect of CDK11B xDFG Gly→Ser (G579S) mutation on viability in drug” value ([2]; A375, A2780, DLD1 and MDA-MB-231 cells, lethal concentration of OTS964)?
A: The value was “sufficient to restore viability”.

Q: What about the “effect of alanine substitution at CDK11B residue 579 on drug efficacy” value ([2]; CDK11B residue 579 alanine substitution) of the same molecule?
A: Its value is “sufficient to decrease the efficacy”.

Q: What about the “effect of G579S substitution on mitotic entry and progression in drug” value ([3]; A375 cells with CDK11B G579S, lethal concentration of OTS964) of the same molecule?
A: The value was “rescued normal mitotic entry and progression”.

Q: And the “effect on DNA replication” value ([3]; arrested cells: 4C DNA content, no 53BP1-foci)?
A: Its value is “did not perturb DNA replication”.

Q: What about the “effect on cell cycle” value ([3]; lethal concentration of OTS964, release from double-thymidine block) of the same molecule?
A: The value was “arrested in G2”.

Q: And the “effect on mitotic progression” value ([3]; low concentration of OTS964, release from double-thymidine block)?
A: Its value is “delayed nuclear envelope breakdown and progressed slowly through mitosis”.

Q: What about the potency (multiple cancer types) of the same molecule?
A: Its potency is “nanomolar potency”.

Q: Which “sensitivity of MAPK14/p38α knockout clones versus Rosa26 control clones” value [4] does the source give for `CC(C)C[C@H](NC(=O)[C@H](Cc1ccccc1)NC(=O)c1cnccn1)B(O)O` [bortezomib] here?
A: Its value is “as sensitive”.

Q: With `C=CCc1cccc(/C=N/NC(=O)CN2CCN(Cc3ccccc3)CC2)c1O` [PAC-1] as the molecule, how does the “sensitivity of CASP3-KO lines compared to Rosa26 controls” value (CASP3-KO lines) read?
A: Its value is “identical sensitivity”.

Q: What about the “IC50 value in MCF7 cells compared to caspase 3-expressing cell lines” value (MCF7 cells) of the same molecule?
A: Its value is “higher”.

Q: With `Nc1ccn([C@@H]2O[C@H](CO)[C@@H](O)C2(F)F)c(=O)n1` [gemcitabine] as the molecule, how does the “sensitivity of MAPK14/p38α knockout clones versus Rosa26 control clones” value [4] read?
A: The value was “as sensitive”.

Q: For `Cn1nnc2c(C(N)=O)ncn2c1=O` [temozolomide], which “sensitivity of MAPK14/p38α knockout clones versus Rosa26 control clones” value [4] is on record?
A: Its value is “as sensitive”.

Q: For `CO[C@H]1C[C@@H]2CC[C@@H](C)[C@@](O)(O2)C(=O)C(=O)N2CCCC[C@H]2C(=O)O[C@H]([C@H](C)C[C@@H]2CC[C@@H](O)[C@H](OC)C2)CC(=O)[C@H](C)/C=C(\C)[C@@H](O)[C@@H](OC)C(=O)[C@H](C)C[C@H](C)/C=C/C=C/C=C/1C` [rapamycin], which “effect of FKBP12 knockout on drug sensitivity” value (FKBP12 KO clones) is on record?
A: Its value is “increased resistance”.

Q: For `O=C(CCCCCCNC(=O)c1cnc(N(c2ccccc2)c2ccccc2Cl)nc1)NO` [citarinostat], which “sensitivity of TOV-21G HDAC6-KO cells” value (TOV-21G HDAC6-KO cells) is on record?
A: The value was “remained sensitive”.

Q: For `N.N.O=C([O-])C1(C(=O)[O-])CCC1.[Pt+2]` [carboplatin], which “sensitivity of MAPK14/p38α knockout clones versus Rosa26 control clones” value [4] is on record?
A: Its value is “as sensitive”.

Q: Which results are given for `CC(=O)O[C@H]1C(=O)[C@@]2(C)[C@H]([C@H](OC(=O)c3ccccc3)[C@]3(O)C[C@H](OC(=O)[C@H](O)[C@@H](NC(=O)c4ccccc4)c4ccccc4)C(C)=C1C3(C)C)[C@]1(OC(C)=O)CO[C@@H]1C[C@@H]2O` [paclitaxel]?
A: effect of loss of HDAC6 on drug sensitivity (HDAC6 knockout clones): failed to sensitize; sensitivity of OTS964-resistant clones [5]: remained sensitive

Q: Which “effect of p53 knockout on drug sensitivity” value (p53 knockout cells) does the source give for `COc1ccc(C2=N[C@@H](c3ccc(Cl)cc3)[C@@H](c3ccc(Cl)cc3)N2C(=O)N2CCNC(=O)C2)c(OC(C)C)c1` [nutlin-3a] here?
A: The value was “conferred resistance”.

Q: For `CC(=O)c1cnc2ccc(-c3cc(Cl)c(O)c(Cl)c3)nc2c1N[C@H]1CC[C@H](CN(C)C)CC1` [OTS167], which “killing of MELK-KO cancer cells” value [6] is on record?
A: Its value is “no decrease in potency”.

Q: What does the source list for `O=C(CCCCCCNC(=O)c1cnc(N(c2ccccc2)c2ccccc2)nc1)NO` [ricolinostat]?
A: sensitivity of TOV-21G HDAC6-KO cells (TOV-21G HDAC6-KO cells): remained sensitive; killing of HDAC6-KO HAP1 cells (HDAC6-KO HAP1 cells): continued to kill; also recorded: kills
